Drawing on publication PMC10176470, “Engaging a Non-catalytic Cysteine Residue Drives Potent and Selective Inhibition of Caspase-6” (Journal of the American Chemical Society, 2023), this text covers enrich.exp.med, enrich.exp.med.lin and enrich.exp.med.log2 for one compound.

Format in all cases: cell-based
The target in experiment [1] is proteins of HEK293T cells transiently overexpressing caspase-6 (Homo sapiens, UniProt O75643). The settings on record: exp_ref Probe; protein SNRNP200 (O75643); analysis C6.
Chain of proteins of HEK293T cells transiently overexpressing caspase-6 (Homo sapiens, UniProt O75643) (O75643 whole entry): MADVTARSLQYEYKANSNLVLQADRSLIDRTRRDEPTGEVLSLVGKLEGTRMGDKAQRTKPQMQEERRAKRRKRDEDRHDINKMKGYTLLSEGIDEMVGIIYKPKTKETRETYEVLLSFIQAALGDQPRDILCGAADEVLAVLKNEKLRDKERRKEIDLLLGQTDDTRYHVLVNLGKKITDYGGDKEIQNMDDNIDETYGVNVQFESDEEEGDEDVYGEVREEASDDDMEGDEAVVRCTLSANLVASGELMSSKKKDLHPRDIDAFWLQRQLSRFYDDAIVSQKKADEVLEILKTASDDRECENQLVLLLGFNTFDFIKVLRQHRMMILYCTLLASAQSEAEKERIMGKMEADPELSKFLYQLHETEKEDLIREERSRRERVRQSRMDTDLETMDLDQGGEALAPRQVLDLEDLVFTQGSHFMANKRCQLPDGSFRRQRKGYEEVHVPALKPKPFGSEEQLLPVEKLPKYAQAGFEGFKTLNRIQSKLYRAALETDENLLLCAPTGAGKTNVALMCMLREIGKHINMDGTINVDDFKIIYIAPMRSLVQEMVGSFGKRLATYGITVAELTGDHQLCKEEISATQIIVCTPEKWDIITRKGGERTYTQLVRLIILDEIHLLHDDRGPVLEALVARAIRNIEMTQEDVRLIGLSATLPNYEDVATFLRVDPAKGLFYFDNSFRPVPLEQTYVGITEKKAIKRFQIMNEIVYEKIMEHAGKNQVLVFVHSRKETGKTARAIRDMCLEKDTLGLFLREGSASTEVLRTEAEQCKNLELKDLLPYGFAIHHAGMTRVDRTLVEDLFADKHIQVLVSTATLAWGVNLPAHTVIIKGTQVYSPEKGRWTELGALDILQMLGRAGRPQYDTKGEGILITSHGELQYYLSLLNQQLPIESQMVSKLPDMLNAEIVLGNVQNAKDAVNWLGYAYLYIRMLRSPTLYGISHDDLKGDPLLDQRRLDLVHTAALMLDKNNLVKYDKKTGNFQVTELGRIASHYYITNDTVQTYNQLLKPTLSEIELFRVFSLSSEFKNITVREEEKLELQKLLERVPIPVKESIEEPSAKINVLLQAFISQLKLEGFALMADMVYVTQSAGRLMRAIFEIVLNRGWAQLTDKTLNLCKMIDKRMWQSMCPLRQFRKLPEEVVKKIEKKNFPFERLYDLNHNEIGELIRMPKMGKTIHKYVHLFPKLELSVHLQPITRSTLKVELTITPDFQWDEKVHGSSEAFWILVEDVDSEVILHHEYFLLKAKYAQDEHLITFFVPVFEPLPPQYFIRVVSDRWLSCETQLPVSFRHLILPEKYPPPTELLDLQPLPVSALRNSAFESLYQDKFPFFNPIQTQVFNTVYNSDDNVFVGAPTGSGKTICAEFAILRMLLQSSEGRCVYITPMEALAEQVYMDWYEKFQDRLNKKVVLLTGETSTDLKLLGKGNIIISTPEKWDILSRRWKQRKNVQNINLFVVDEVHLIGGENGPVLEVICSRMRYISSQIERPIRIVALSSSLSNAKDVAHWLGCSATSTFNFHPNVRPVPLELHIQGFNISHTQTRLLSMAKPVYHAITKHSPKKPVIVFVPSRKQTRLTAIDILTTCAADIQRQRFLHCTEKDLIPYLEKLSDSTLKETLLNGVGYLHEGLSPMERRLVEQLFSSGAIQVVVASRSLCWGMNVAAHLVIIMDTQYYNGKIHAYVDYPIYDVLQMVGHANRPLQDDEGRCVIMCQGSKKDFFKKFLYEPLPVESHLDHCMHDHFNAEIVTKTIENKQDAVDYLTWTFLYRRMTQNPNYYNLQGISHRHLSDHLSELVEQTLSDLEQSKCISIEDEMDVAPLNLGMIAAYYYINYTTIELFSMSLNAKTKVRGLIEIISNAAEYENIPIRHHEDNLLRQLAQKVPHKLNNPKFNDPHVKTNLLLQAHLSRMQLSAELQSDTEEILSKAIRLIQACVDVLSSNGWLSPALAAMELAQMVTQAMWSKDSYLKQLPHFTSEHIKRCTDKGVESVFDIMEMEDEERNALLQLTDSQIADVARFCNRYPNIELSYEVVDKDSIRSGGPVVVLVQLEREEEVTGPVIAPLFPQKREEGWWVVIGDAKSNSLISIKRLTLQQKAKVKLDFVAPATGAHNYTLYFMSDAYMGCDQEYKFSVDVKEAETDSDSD
In experiment [2] the target is T1, proteins of HEK293T cells transiently overexpressing caspase-6 (Homo sapiens, UniProt P00505).
T1 sequence (P00505 30-430): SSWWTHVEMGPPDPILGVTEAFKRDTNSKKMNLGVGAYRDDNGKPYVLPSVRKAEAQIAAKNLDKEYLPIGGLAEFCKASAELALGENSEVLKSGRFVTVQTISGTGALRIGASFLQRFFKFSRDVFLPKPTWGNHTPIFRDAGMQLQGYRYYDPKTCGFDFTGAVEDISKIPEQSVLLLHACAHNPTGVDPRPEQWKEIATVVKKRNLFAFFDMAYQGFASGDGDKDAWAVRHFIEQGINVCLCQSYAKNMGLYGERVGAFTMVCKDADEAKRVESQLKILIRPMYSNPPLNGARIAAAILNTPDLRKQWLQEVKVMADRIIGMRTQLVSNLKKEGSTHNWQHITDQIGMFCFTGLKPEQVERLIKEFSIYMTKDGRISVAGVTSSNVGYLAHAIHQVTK

Experiment [3] has as its target proteins of HEK293T cells transiently overexpressing caspase-6 (Homo sapiens, UniProt P27348). Particulars: exp_ref Probe; protein YWHAQ (P27348); analysis C6.
In experiment [4] the target is T2, proteins of HEK293T cells transiently overexpressing caspase-6 (Homo sapiens, UniProt P29401).
T2 sequence (P29401 1-623): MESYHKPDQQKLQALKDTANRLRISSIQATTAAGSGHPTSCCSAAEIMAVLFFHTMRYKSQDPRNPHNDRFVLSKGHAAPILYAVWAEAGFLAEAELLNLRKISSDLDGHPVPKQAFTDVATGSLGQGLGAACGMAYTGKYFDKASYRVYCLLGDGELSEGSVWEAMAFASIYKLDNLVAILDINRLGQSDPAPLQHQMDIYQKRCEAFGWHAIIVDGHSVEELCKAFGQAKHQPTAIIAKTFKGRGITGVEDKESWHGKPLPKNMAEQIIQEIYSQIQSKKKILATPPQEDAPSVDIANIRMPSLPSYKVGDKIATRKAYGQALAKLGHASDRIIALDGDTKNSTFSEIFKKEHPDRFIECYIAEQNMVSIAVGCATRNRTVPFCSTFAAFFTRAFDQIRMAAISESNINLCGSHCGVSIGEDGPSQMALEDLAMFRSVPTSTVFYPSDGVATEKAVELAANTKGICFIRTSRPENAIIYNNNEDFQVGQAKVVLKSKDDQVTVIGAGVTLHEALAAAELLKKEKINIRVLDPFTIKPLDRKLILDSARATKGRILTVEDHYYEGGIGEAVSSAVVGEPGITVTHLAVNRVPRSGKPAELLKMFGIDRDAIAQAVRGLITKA

For experiment [5], the target named is proteins of HEK293T cells transiently overexpressing caspase-6 (Homo sapiens, UniProt P31930). Particulars: Probe; protein UQCRC1 P31930.
Chain of proteins of HEK293T cells transiently overexpressing caspase-6 (Homo sapiens, UniProt P31930) (P31930 35-480): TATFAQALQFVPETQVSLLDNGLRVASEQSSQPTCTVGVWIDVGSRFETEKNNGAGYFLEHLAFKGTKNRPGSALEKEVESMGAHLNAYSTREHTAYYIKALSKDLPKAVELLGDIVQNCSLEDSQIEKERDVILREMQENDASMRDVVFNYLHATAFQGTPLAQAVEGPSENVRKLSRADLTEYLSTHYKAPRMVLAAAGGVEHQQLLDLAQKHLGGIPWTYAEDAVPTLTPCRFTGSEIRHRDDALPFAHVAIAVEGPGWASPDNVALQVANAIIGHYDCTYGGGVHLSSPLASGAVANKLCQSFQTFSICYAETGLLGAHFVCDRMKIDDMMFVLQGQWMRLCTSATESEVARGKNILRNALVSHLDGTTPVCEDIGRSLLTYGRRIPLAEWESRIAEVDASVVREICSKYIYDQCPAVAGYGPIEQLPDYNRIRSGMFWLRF
In experiment [6] the target is proteins of HEK293T cells transiently overexpressing caspase-6 (Homo sapiens, UniProt P43243). The settings on record: exp_ref Probe; protein MATR3 (P43243); analysis C6.
Chain of proteins of HEK293T cells transiently overexpressing caspase-6 (Homo sapiens, UniProt P43243) (P43243 whole entry): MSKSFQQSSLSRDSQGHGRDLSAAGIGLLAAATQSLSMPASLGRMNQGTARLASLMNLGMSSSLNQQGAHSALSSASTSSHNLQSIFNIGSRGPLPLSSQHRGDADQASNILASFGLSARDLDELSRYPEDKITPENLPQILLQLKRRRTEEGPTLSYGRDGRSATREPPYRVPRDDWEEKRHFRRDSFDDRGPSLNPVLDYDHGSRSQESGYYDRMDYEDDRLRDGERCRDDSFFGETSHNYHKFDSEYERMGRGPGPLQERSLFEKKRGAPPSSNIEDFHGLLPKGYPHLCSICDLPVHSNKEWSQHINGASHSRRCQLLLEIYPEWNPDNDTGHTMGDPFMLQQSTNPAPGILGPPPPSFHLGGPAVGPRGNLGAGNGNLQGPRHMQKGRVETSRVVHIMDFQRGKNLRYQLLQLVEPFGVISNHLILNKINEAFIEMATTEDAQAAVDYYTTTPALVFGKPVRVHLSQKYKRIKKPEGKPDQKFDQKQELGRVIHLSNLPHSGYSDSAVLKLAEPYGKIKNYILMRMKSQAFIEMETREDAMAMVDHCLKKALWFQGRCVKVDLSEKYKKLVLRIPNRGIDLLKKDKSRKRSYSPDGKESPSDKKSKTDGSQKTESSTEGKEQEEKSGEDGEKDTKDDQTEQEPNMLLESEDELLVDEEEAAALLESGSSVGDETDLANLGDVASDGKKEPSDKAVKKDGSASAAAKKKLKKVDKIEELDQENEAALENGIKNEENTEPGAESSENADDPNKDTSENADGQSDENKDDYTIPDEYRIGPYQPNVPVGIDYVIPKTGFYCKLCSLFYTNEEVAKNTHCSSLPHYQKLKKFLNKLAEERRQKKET
In experiment [7] the target is proteins of HEK293T cells transiently overexpressing caspase-6 (Homo sapiens, UniProt P60900). Particulars: exp_ref Probe; protein PSMA6 (P60900); analysis C6.
Chain of proteins of HEK293T cells transiently overexpressing caspase-6 (Homo sapiens, UniProt P60900) (P60900 whole entry): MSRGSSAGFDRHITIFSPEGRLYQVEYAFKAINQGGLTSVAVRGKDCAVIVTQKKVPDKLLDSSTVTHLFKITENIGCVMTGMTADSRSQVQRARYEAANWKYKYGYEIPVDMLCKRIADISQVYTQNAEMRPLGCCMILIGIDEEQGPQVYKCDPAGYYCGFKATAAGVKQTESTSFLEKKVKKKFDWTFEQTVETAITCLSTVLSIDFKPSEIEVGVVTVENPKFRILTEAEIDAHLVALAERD
Experiment [8] addresses proteins of HEK293T cells transiently overexpressing caspase-6 (Homo sapiens, UniProt P62917). The settings on record: Probe; protein RPL8 P62917.
Experiment [9] deals with T3, proteins of HEK293T cells transiently overexpressing caspase-6 (Homo sapiens, UniProt Q14103).
T3 sequence (Q14103 1-355): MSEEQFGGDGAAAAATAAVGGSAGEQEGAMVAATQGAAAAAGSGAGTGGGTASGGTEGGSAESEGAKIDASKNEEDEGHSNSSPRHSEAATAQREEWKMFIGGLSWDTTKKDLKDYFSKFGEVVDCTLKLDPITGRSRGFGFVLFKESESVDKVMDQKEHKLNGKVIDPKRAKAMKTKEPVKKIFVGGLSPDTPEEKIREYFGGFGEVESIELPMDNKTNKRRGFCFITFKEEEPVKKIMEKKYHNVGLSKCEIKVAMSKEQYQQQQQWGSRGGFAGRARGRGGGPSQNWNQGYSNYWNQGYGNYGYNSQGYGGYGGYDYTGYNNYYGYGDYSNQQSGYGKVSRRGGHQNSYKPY
Particulars: protein HNRNPD (Q14103).

Experiment [10] addresses proteins of HEK293T cells transiently overexpressing caspase-6 (Homo sapiens, UniProt Q15084). The settings on record: exp_ref Probe; protein PDIA6 (Q15084); analysis C6.
Experiment [11] has as its target proteins of HEK293T cells transiently overexpressing caspase-6 (Homo sapiens, UniProt Q15233). The settings on record: exp_ref Probe; protein NONO (Q15233); analysis C6.
Experiment [12] concerns the target proteins of HEK293T cells transiently overexpressing caspase-6 (Homo sapiens, UniProt Q9BRX8). Particulars: Probe; protein FAM213A Q9BRX8.

Chain of proteins of HEK293T cells transiently overexpressing caspase-6 (Homo sapiens, UniProt Q15233) (Q15233 whole entry): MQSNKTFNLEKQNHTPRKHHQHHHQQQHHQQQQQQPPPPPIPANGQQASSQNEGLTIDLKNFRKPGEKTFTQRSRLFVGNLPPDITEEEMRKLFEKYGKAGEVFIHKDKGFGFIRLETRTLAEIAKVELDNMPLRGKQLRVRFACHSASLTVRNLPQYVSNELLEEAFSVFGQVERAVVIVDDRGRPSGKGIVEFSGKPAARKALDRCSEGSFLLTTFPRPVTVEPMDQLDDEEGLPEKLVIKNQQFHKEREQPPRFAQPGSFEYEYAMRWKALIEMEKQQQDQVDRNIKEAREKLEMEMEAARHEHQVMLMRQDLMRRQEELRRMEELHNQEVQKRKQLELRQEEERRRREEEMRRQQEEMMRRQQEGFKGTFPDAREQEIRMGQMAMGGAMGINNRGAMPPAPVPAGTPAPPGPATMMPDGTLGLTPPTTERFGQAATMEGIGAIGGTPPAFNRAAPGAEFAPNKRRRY
Chain of proteins of HEK293T cells transiently overexpressing caspase-6 (Homo sapiens, UniProt P27348) (P27348 whole entry): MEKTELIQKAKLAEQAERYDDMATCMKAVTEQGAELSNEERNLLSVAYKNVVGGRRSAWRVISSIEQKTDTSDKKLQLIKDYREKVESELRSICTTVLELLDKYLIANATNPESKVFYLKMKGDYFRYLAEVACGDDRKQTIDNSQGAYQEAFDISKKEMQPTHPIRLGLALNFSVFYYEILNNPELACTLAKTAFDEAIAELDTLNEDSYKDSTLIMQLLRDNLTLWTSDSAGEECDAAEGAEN
Chain of proteins of HEK293T cells transiently overexpressing caspase-6 (Homo sapiens, UniProt Q15084) (Q15084 20-440): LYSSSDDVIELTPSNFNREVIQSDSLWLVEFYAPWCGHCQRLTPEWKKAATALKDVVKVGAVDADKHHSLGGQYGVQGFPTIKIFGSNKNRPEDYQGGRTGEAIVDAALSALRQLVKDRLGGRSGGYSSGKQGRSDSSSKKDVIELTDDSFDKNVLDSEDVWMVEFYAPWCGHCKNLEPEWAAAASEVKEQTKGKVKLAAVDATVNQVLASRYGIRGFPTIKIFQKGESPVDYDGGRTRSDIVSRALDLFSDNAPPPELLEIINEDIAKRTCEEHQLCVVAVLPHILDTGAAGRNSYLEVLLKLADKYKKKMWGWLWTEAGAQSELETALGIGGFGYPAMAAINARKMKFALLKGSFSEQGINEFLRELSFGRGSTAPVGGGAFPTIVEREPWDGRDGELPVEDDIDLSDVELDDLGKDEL
Chain of proteins of HEK293T cells transiently overexpressing caspase-6 (Homo sapiens, UniProt Q9BRX8) (Q9BRX8 whole entry): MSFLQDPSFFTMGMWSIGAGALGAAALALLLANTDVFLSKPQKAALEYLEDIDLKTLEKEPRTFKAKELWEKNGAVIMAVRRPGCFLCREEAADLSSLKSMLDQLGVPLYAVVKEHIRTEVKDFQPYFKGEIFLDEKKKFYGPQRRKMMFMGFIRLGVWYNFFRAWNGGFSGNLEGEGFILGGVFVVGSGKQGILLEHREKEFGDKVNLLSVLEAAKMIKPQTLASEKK

Regarding `C#CCOc1ccc([C@@H]2C[C@@H](C(=O)Nc3ccc(OC(F)(F)F)cc3)CN(S(=O)(=O)C=C)C2)cc1` (relative stereo) [13-t], the enrich.exp.med was -0.0557 in [1]; -0.8861 in [2] (Probe, protein GOT2 P00505); 0.7591 in [3]; -0.5472 in experiment [4] (Probe, protein TKT P29401); -0.9693 in experiment [5]; 0.5323 in [6]. Besides, the enrich.exp.med is reported as -0.241 in [7]; -0.8445 in experiment [8]; -0.3533 in [9] (exp_ref Probe, analysis C6); 0.9602 in experiment [10]; 0.7906 in experiment [11]; -8.503 in experiment [12]. Further, the enrich.exp.med.lin in [2] (protein GOT2 (P00505)) amounted to 0.5411; in experiment [4] (protein TKT (P29401)) it was 0.6843; in experiment [9] it was 0.7828. Also, the figures for the enrich.exp.med.log2 in [2] (protein GOT2 (P00505)), in experiment [4] (protein TKT (P29401)) and in [9] were -0.8861, -0.5472 and -0.3533, respectively.
